Laboratory results reported in ChEMBL document CHEMBL3352079, “Pyrimidine-based tricyclic molecules as potent and orally efficacious inhibitors of wee1 kinase” (ACS Med Chem Lett, 2015).
The source made the active and inactive calls. The rule behind the calls is not given here.

What was measured:
[1] = AUC in CD-1 mouse at 10 mg/kg, po; type: ADME, organism-based; design: dose 10 mg/kg, route oral; settings: plasma
[2] = Clearance in CD-1 mouse at 3 mg/kg, iv; type: ADME, organism-based; design: dose 3 mg/kg, route intravenous; settings: in vivo
[3] = Half life in CD-1 mouse at 3 mg/kg, iv; type: ADME, organism-based; design: dose 3 mg/kg, route intravenous; settings: in vivo
[4] = Oral bioavailability in CD-1 mouse at 10 mg/kg; type: ADME, organism-based; settings: in vivo
Wee1-like protein kinase [5] = target: T1, Wee1-like protein kinase (Homo sapiens, UniProt P30291); assay: Inhibition of human Weel1 in human NCI-H1299 cells assessed as phosphorylation of Cdk1 after overnight incubation by ELISA PD assay; type: cell-based
NCI-H1299 [6] = assay: Cytotoxicity against human NCI-H1299 cells assessed as cell viability after 72 hrs by CellTiterGlo assay; type: functional, cell-based; settings: NCI-H1299, 72 h
Wee1-like protein kinase [7] = target: T1, Wee1-like protein kinase; assay: Inhibition of GST-tagged human Wee1
NCI-H1299 [8] = assay: Antitumor activity against human NCI-H1299 cells xenografted in mouse assessed as tumor growth inhibition at 50 mg/kg, po qd from day 28 to 41 after tumor inoculation in presence of 10 mg/kg irinotecan; type: functional
NCI-H1299 [9] = assay: Antitumor activity against human NCI-H1299 cells xenografted in mouse assessed as tumor growth inhibition at 10 mg/kg, po qd from day 28 to 41 after tumor inoculation; type: functional; settings: NCI-H1299, 672 h, read-out: TGI
NCI-H1299 [10] = assay: Antitumor activity against human NCI-H1299 cells xenografted in mouse assessed as tumor growth delay at 50 mg/kg, po qd from day 28 to 41 after tumor inoculation in presence of 10 mg/kg irinotecan; type: functional
Mus musculus = assay: In vivo inhibition of Wee1 in human NCI-H1299 cells xenografted in mouse assessed as pY15 CDK expression at 100 mg/kg, po qd after 6 to 10 hrs; type: functional, organism-based; design: dose 100 mg/kg
NCI-H1299 [11] = assay: Antitumor activity against human NCI-H1299 cells xenografted in mouse assessed as tumor growth inhibition at 50 mg/kg, po qd from day 28 to 41 after tumor inoculation; type: functional; settings: NCI-H1299, 672 h, read-out: TGI
NCI-H1299 [12] = assay: Antitumor activity against human NCI-H1299 cells xenografted in mouse assessed as depletion of pY15 bands at 100 mg/kg, po after 6 hrs; type: functional, organism-based; design: dose 100 mg/kg
[13] = Drug uptake in human NCI-H1299 cells xenografted in mouse assessed in tumor at 100 mg/kg, po qd after 10 hrs; type: ADME, organism-based, Neoplasm; design: dose 100 mg/kg, route oral; settings: read-out: Drug uptake
NCI-H1299 [14] = assay: Antitumor activity against human NCI-H1299 cells xenografted in mouse assessed as depletion of pY15 bands at 100 mg/kg, po after 10 hrs; type: functional, organism-based; design: dose 100 mg/kg
[15] = Plasma concentration in human NCI-H1299 cells xenografted in mouse at 100 mg/kg, po qd after 10 hrs; type: ADME, organism-based; design: dose 100 mg/kg, route oral
[16] = Drug uptake in human NCI-H1299 cells xenografted in mouse assessed in tumor at 100 mg/kg, po qd after 6 hrs; type: ADME, organism-based, Neoplasm; design: dose 100 mg/kg, route oral; settings: read-out: Drug uptake
[17] = Plasma concentration in human NCI-H1299 cells xenografted in mouse at 100 mg/kg, po qd after 6 hrs; type: ADME, organism-based; design: dose 100 mg/kg, route oral

T1 sequence (P30291 whole entry): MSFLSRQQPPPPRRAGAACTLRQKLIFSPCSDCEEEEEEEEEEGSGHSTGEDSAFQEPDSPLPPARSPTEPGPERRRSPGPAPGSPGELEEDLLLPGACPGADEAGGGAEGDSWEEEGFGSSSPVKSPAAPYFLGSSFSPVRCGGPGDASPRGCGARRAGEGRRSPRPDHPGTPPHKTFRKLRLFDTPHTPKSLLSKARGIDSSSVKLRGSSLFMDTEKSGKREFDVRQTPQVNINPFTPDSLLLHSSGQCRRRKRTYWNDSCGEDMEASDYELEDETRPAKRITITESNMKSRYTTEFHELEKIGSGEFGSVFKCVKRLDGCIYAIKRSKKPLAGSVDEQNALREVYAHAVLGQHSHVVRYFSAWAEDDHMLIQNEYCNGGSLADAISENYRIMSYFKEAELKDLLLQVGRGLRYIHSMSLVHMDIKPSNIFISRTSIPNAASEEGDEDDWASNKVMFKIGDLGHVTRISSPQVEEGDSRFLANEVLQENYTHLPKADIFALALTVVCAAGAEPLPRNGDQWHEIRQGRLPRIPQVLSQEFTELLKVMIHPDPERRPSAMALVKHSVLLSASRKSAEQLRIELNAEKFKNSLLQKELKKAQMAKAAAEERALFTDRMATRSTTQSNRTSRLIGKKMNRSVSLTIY

Structure (SMILES)	AUC [1] [µM·h]	clearance [2] [mL/min/kg]	half-life [3] [h]	bioavailability [4] [%]	EC50 (Wee1-like protein kinase [5]) [nM]	Ki (Wee1-like protein kinase [7]) [nM]	EC50 (NCI-H1299 [6]) [nM]	further results
CN1CCCc2cc(Nc3ncc4c(=O)n(-c5ccccc5Cl)c5nccn5c4n3)ccc21	–	–	–	–	2700	7.4	9300	–
O=c1c2cnc(Nc3ccc(C4CCCCC4)cc3)nc2n2ccnc2n1-c1ccccc1Cl	–	–	–	–	10000	87	> 10000	–
O=c1c2cnc(Nc3ccccc3)nc2n2ccnc2n1-c1ccccc1Cl	–	–	–	–	6800	21	5900	–
CN1CCN(c2ccc(Nc3ncc4c(=O)n(-c5c(F)cccc5Cl)c5nccn5c4n3)cc2)CC1	–	–	–	–	–	–	450	–
CCc1c2c(nc3ccc(OC(=O)N4CCC(N5CCCCC5)CC4)cc13)-c1cc3c(c(=O)n1C2)COC(=O)[C@]3(O)CC [IRINOTECAN]	–	–	–	–	–	–	–	TGI (NCI-H1299 [8]): 83%; inhibition in vivo at 10 mg/kg (NCI-H1299 [9]): 67%
CN1CCC(c2ccc(Nc3ncc4c(=O)n(-c5ccccc5Cl)c5nccn5c4n3)cc2)CC1	–	–	–	–	3100	8.3	9600	–
CN1CCCc2ccc(Nc3ncc4c(=O)n(-c5ccccc5Cl)c5nccn5c4n3)cc21	–	–	–	–	2300	8.6	> 10000	–
CN1CCN(c2ccccc2Nc2ncc3c(=O)n(-c4ccccc4Cl)c4nccn4c3n2)CC1	–	–	–	–	–	> 3140	–	–
O=c1c2cnc(Nc3ccc4c(c3)CCCC4)nc2n2ccnc2n1-c1ccccc1Cl	–	–	–	–	6000	26	7300	–
CC(=O)N1CCN(c2ccc(Nc3ncc4c(=O)n(-c5ccccc5Cl)c5nccn5c4n3)cc2)CC1	–	–	–	–	1100	6.6	3300	–
O=c1c2cnc(NC3CCCCC3)nc2n2ccnc2n1-c1ccccc1Cl	–	–	–	–	–	> 3140	–	–
CN1CCN(c2cccc(Nc3ncc4c(=O)n(-c5ccccc5Cl)c5nccn5c4n3)c2)CC1	–	–	–	–	1500	6.2	6500	–

Further lines, with some results ahead:

AUC [1] [µM·h]	clearance [2] [mL/min/kg]	half-life [3] [h]	bioavailability [4] [%]	EC50 (Wee1-like protein kinase [5]) [nM]	Ki (Wee1-like protein kinase [7]) [nM]	Structure (SMILES)	EC50 (NCI-H1299 [6]) [nM]	further results
9.8	25	2.3	70	100	1.2	CN1Cc2cc(Nc3ncc4c(=O)n(-c5ccccc5Cl)c5nccn5c4n3)ccc2C2(CC2)C1	690	–
–	–	–	–	620	5.4	CC(=O)N1Cc2cc(Nc3ncc4c(=O)n(-c5ccccc5Cl)c5nccn5c4n3)ccc2C2(CC2)C1	2000	–
–	–	–	–	27	< 1	CN1Cc2cc(Nc3ncc4c(=O)n(-c5c(Cl)cccc5Cl)c5nccn5c4n3)ccc2C2(CC2)C1	220	–
5.2	36.7	1.5	52	220	1.6	CN1CCc2ccc(Nc3ncc4c(=O)n(-c5ccccc5Cl)c5nccn5c4n3)cc2C1	770	–
12	18.3	2.6	68	29	< 1	CN1Cc2cc(Nc3ncc4c(=O)n(-c5c(F)cccc5Cl)c5nccn5c4n3)ccc2C2(CC2)C1	210	–
12.3	23.3	2.8	80	98	< 1	CN1Cc2cc(Nc3ncc4c(=O)n(-c5ccccc5Cl)c5nccn5c4n3)ccc2C(C)(C)C1	550	–
9.8	16.2	3.9	49	< 13	< 1	CN1Cc2cc(Nc3ncc4c(=O)n(-c5c(Cl)cccc5Cl)c5nccn5c4n3)ccc2C(C)(C)C1	230	–
6.5	33.3	1.7	55	87	< 1	CN1CCN(c2ccc(Nc3ncc4c(=O)n(-c5c(Cl)cccc5Cl)c5nccn5c4n3)cc2)CC1	190	–
24	9.17	2.8	94	60	< 1	CN1Cc2cc(Nc3ncc4c(=O)n(-c5c(F)cccc5Cl)c5nccn5c4n3)ccc2C(C)(C)C1	310	Activity (NCI-H1299 [10]): 25%; inhibition (Mus musculus): Active; inhibition in vivo at 50 mg/kg (NCI-H1299 [11]): 43%; inhibition (NCI-H1299 [12]): Active; concentration at 10 h [13]: 53.4 µM; inhibition (NCI-H1299 [14]): Active; TGI (NCI-H1299 [8]): 83%; concentration at 10 h [15]: 13.7 µM; concentration at 6 h [16]: 47.1 µM; concentration at 6 h [17]: 20 µM
–	–	–	–	3800	5.5	O=c1c2cnc(Nc3ccc(N4CCCCC4)cc3)nc2n2ccnc2n1-c1ccccc1Cl	9800	–
8.4	30	1.9	72	370	2.3	CN1CCN(c2ccc(Nc3ncc4c(=O)n(-c5ccccc5Cl)c5nccn5c4n3)cc2)CC1	1000	–
